Where two headings read alike, the source gives them in different places.
Legend:
[1] = molecular target: T1, hFAP (vital hFAP-HT1080 cells) (Homo sapiens, UniProt Q12884); test: real-time binding (LigandTracer) to vital hFAP-HT1080 cells; conditions: for Bmax (%): fitted per individual curve, range; for Bmax (%) / ka / kd: room temperature; for ka / kd: global fit, 1:1 model
T1 construct: expressed in transfected cells; host or cells: HT1080 (human fibrosarcoma), lentiviral transduction
T1 sequence (Q12884 1-760): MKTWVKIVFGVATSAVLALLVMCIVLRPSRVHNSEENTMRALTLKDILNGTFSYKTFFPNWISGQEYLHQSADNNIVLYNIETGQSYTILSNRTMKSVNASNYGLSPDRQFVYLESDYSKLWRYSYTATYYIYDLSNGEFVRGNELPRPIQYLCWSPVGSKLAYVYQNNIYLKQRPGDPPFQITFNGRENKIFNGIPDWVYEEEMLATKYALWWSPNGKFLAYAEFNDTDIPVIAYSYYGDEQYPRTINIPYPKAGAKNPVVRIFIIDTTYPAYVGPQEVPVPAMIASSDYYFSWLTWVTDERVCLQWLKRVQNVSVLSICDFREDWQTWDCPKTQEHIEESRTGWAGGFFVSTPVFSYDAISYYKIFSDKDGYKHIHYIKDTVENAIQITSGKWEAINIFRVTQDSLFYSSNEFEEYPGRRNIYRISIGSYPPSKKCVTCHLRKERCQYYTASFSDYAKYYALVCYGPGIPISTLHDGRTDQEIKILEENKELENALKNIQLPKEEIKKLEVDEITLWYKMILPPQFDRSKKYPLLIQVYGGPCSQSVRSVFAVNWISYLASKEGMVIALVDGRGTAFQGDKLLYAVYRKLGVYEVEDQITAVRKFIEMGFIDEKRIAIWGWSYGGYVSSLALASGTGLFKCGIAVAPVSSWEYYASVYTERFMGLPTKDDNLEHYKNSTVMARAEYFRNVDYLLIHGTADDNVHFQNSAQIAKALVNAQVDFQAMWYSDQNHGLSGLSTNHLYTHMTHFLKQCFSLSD
Protocol: (§1) To determine binding kinetics (association rate constant ka, dissociation rate constant kd, and thermodynamic dissociation constant KD), real-time assay systems (LigandTracer Yellow/White for radioactivity and Green with Red/NIR + and NIR + + /IR detectors for fluorescence; Ridgeview Instruments AB, Sweden) were utilized. In a 100 mm petri dish, cells or tissue sections in medium (3–4 mL total volume), are located on one side, while the radioactive or fluorescent signal is detected on the opposite, elevated side. Rotation on an inclined base in set intervals (30 s) allows continuous measurement of signal in the target (cells/tissue) against background area (no cells/tissue). Experiments were performed at room temperature, using CO2-independent medium, usually with 0.5–1% w/v bovine serum albumin, (#1ETA, Carl Roth, Germany). Association was determined through incubation with two distinct concentrations (between 1–5 and 4.5–10 nM, 60 min each, additive) for each compound. For that purpose, the same ligand preparation was typically employed for radioactive and fluorescent detection. This was followed by replacement with fresh medium and observation of dissociation for at least 2 h. Additionally, the dissociation rate constant was further investigated beyond 6 h, either using fluorescent detection or via gallium-67 (t1/2: 78.3 h). This approach provides reliable kinetic measurements in a 1:1 interaction setting, as previously shown (Onell and Andersson [2005]).
Binding data was evaluated using TraceDrawer (1.9.2, Ridgeview Instruments AB, Sweden). Traces were imported, potential spikes (> 100% sudden signal increases over previous datapoints) removed and each trace was normalized to its own baseline (= 0%) and highest value (= 100%, typically at the end of the second association phase). This allows comparing data across experiments and ultimately global fitting, without differences, e.g. of molar activity, affecting it. Typically, at least 3 individual traces per ligand, substrate and modality were recorded. Data was fitted in TraceDrawer using a 1:1 interaction model, with/without accounting for bulk effect. A 1:1 interaction is the simplest model, as it describes the binding of a ligand at a constant concentration to the target, with each one molecule of ligand binding to one molecule of target.

[2] = test system: WT-HT1080 cells; test: real-time binding control on wild type HT1080 cells; parameters: species or system human; conditions: cells lacking substantial FAP expression
Protocol: as §1, with “This approach provides reliable kinetic measurements in a 1:1 interaction setting, as previously shown (Onell and Andersson [2005]).” left out

[3] = test system: hFAP-HT1080 and WT-HT1080 xenografts; test: small-animal PET imaging of xenograft-bearing mice; type: in vivo, female NMRI-nude mice
Source text: Female athymic NMRI-nude mice (Rj:NMRI-Foxn1nu, Janvier Labs, France or Charles River, Germany) between 8 and 20 weeks of age were used. Subsequently, the prepared cells (1.0–2.0 × 10^6 hFAP/WT-HT1080 per animal) were subcutaneously injected into the right and left thigh, respectively. Xenograft tissue for real-time binding experiments was derived from animals injected with both target-positive and negative cells, however only showing growth of one tumor entity. When approaching endpoints, mice were anesthetized and euthanized. The tumor was quickly removed, frozen in − 45 °C 2-methylbutane and stored in sealed tubes at − 80 °C.
PET and X-ray computed tomography (CT) were performed in a dedicated small animal scanner (nanoScan PET/CT, Mediso, Hungary). Animals received a single dynamic scan corresponding to 0–2 h post injection. The radiotracer solution (8 – 20 MBq injected activity) was delivered via an i.v. catheter (lateral tail vein) and PET acquisition was started simultaneously with the injection. Blocking was performed by pre-injection (~ 5 min prior to tracer) of 100 nmol of FAPI-04. Three-dimensional list mode data were binned (400–600 keV energy window) and sorted into 35-time frames (15 × 10 s, 5 × 30 s, 5 × 60 s, 4 × 300 s, 3 × 600 s, 3 × 1200 s). Time frames were then reconstructed using the Tera-Tomo™ 3D algorithm with a voxel size of 0.4 mm and corrected for decay, scatter, and attenuation. PET data was analyzed using Rover (ABX GmbH, Germany). Three-dimensional volumes of interest (VOI) were delineated based on organs/tissues [xenografts, kidney, liver, shoulder and muscle (~ biceps brachii)] and a fixed threshold (35% of the measured maximum intensity) was applied. This yielded standardized uptake values (SUV = [MBq detected activity/mL tissue] / [MBq injected activity/g body weight], mL/g) for the chosen VOI.

[4] = from global fit of ka and kd, read-out: KD
[5] = real-time binding, live cells, read-out: binding affinity (KD)

| Compound | Bmax (%) [1] | Kd [1, 4] [nM] | ka [1] [M⁻¹ s⁻¹] | kd [1] [s⁻¹] | Kd [1, 5] [nM] | binding to wild type HT1080 cells [2] | radioactivity in hFAP-HT1080 xenografts higher than in WT-HT1080 tumor (SUVmean) ([3]; SUVmean) [%] | increase of radioactivity in the kidney compared to tracer-only animals ([3]; pre-injection of unlabeled FAPI-04, depending on timepoint) | radioactivity in hFAP-HT1080 xenografts higher than in WT-HT1080 tumor (SUVmax) ([3]; SUVmax) [%] |
| --- | --- | --- | --- | --- | --- | --- | --- | --- | --- |
| CN(CCCN1CCN(C(=O)[C@H](CCCCNC(=O)CC[C@H](C(=O)[O-])N2CCN(CC(=O)[O-])CCN(CC(=O)[O-])CC2)NC(=O)CCOCCOCCOCCOCCNC(=O)CCCCCN2C(=CC=C3CCCC(C=CC4=[N+](CCCCS(=O)(=O)[O-])c5ccc(S(=O)(=O)O)cc5C4(C)C)=C3Oc3ccc(S(=O)(=O)O)cc3)C(C)(C)c3cc(S(=O)(=O)O)ccc32)CC1)c1ccc2nccc(C(=O)NCC(=O)N3CC(F)(F)C[C@H]3C#N)c2c1.[68Ga+3] [[^68Ga]Ga-NODAGA-FAP800] | 91–96% | 0.0576 | 411000 | 2.37e-05 | 0.058 | lacking any binding | 236 | not observed | – |
| CN(CCCN1CCN(C(=O)[C@H](CCCCNC(=O)CC[C@H](C(=O)[O-])N2CCN(CC(=O)[O-])CCN(CC(=O)[O-])CC2)NC(=O)CCOCCOCCOCCOCCNC(=O)CCCCC[N+]2=C(C=CC=CC=C3N(CCCS(=O)(=O)O)c4ccc(S(=O)(=O)O)cc4C3(C)C)C(C)(CCCS(=O)(=O)O)c3cc(S(=O)(=O)[O-])ccc32)CC1)c1ccc2nccc(C(=O)NCC(=O)N3CC(F)(F)C[C@H]3C#N)c2c1.[68Ga+3] (stereo partly drawn) [[^68Ga]Ga-NODAGA-FAP647] | 84–98% | 0.0138 | 484000 | 6.67e-06 | 0.014 | lacking any binding | – | – | 392 |

Source: article PMC12686243, “Synthesis and preclinical evaluation of FAP-targeting radiotracers for PET and optical imaging” (EJNMMI Radiopharmacy and Chemistry, 2025)
